Where “and” joins values, the source holds several entries; their conditions need not be identical. Identical values can stand only once. Inconclusive results and toxic doses are left out.
Test system: P388 leukemia ip, CD2F1 mice, survival T/C
Test: NCI In Vivo Anticancer Drug Screen. Data for tumor model P388 Leukemia (intraperitoneal) in CD2F1 (CDF1) mice
Conditions: endpoint: median survival time, higher = longer survival
How it was run: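 Mice carrying the transplanted tumor received test compound or vehicle. Survival was recorded in each group, and the value is the treated-group measurement divided by that of the vehicle-treated control group.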

[1] = dose: 50.0 mg/kg/injection, schedule: Q04DX003 (ip), vehicle: saline with Tween-80
[2] = dose: 12.5 mg/kg/injection, schedule: Q01DX005 (ip), vehicle: saline with Tween-80
[3] = dose: 25.0 mg/kg/injection, schedule: Q01DX005 (ip), vehicle: saline with Tween-80
[4] = dose: 50.0 mg/kg/injection, schedule: Q01DX005 (ip), vehicle: saline with Tween-80

With `COc1cc2c(c(OC)c1OC)-c1ccc(OC)c(=O)cc1[C@@H](NC(C)=O)CC2` the T/C (dose: 0.02 mg/kg/injection, schedule: Q01DX009 (ip), vehicle: saline) was 117 % of control, the T/C (dose: 0.06 mg/kg/injection, schedule: Q01DX009 (ip), vehicle: saline) was 119 % of control and the T/C (dose: 0.08 mg/kg/injection, schedule: Q01DX009 (ip), vehicle: saline) was 150 % of control. The T/C (dose: 0.13 mg/kg/injection, schedule: Q01DX005 (ip), vehicle: saline) was 120 % of control, the T/C (dose: 0.16 mg/kg/injection, schedule: Q01DX009 (ip), vehicle: saline) was 156 % of control and the T/C (dose: 0.32 mg/kg/injection, schedule: Q01DX009 (ip), vehicle: saline) was 186 % of control. The T/C (dose: 0.37 mg/kg/injection, schedule: Q01DX010 (ip), vehicle: saline) was 168 % of control, the T/C (dose: 0.4 mg/kg/injection, schedule: Q01DX009 (ip), vehicle: water) was 176 % of control and the T/C (dose: 0.5 mg/kg/injection, schedule: Q01DX005 (ip), vehicle: saline) was 169 % of control. For the same compound, the T/C (dose: 0.64 mg/kg/injection, schedule: Q01DX009 (ip), vehicle: saline) was 225 % of control, the T/C (dose: 0.75 mg/kg/injection, schedule: Q01DX010 (ip), vehicle: saline) was 159 % of control and the T/C (dose: 1.0 mg/kg/injection, schedule: Q01DX005 (ip), vehicle: saline) was 160 % of control and 197 % of control and 205 % of control. The T/C (dose: 1.25 mg/kg/injection, schedule: Q01DX009 (ip), vehicle: saline) was 100 % of control (2×) and 281 % of control and the T/C (dose: 2.0 mg/kg/injection, schedule: Q01DX005 (ip), vehicle: saline) was 175 % of control.
With `C1=CC(=C(C2CCC(Nc3ccccc3)CC2)C2CCC(Nc3ccccc3)CC2)C=CC1=Nc1ccccc1` (centres undefined) the T/C (dose: 50.0 mg/kg/injection, schedule: Q01DX009 (ip), vehicle: saline with Tween-80) was 100 % of control, the T/C (dose: 100.0 mg/kg/injection, schedule: Q01DX009 (ip), vehicle: saline with Tween-80) was 109 % of control and the T/C (dose: 200.0 mg/kg/injection, schedule: Q01DX009 (ip), vehicle: saline with Tween-80) was 109 % of control.
With `CC12CCCC(O1)C(C)(C)O2` (centres undefined) the T/C (dose: 50.0 mg/kg/injection, schedule: Q01DX009 (ip), vehicle: saline) was 99 % of control and the T/C (dose: 100.0 mg/kg/injection, schedule: Q01DX009 (ip), vehicle: saline) was 89 % of control.
In the case of `Cc1ccc(S(=O)(=O)C(Cl)Cl)cc1`, the T/C [1] is reported as 100 % of control and 90 % of control and 93 % of control, the T/C (dose: 100.0 mg/kg/injection, schedule: Q04DX003 (ip), vehicle: saline with Tween-80) is reported as 111 % of control and 118 % of control and 93 % of control and the T/C (dose: 200.0 mg/kg/injection, schedule: Q04DX003 (ip), vehicle: saline with Tween-80) is reported as 104 % of control and 93 % of control. The T/C (dose: 400.0 mg/kg/injection, schedule: Q04DX003 (ip), vehicle: saline with Tween-80) was 102 % of control.
In the case of `COC(=O)C1(O)C(=O)NC2=C1C(=O)c1ccccc1C2=O` (centres undefined), the T/C [2] is reported as 99 % of control and 95 % of control, the T/C [3] is reported as 98 % of control and 110 % of control and the T/C [4] is reported as 105 % of control.
`CC(c1ccc(OCc2ccccc2)cc1)c1cc2c(cc1OCCO)OCO2` (centres undefined) was tested, and the T/C [4] was 98 % of control, the T/C (dose: 100.0 mg/kg/injection, schedule: Q01DX005 (ip), vehicle: saline with Tween-80) was 100 % of control and the T/C (dose: 200.0 mg/kg/injection, schedule: Q01DX005 (ip), vehicle: saline with Tween-80) was 100 % of control.
`CO[C@@]12[C@H](COC(N)=O)C3=C(C(=O)C(C)=C(NCCO)C3=O)N1C[C@@H]1N[C@@H]12` was tested, and the T/C (dose: 12.5 mg/kg/injection, schedule: Q01DX009 (ip), vehicle: saline sonified) was 95 % of control, the T/C (dose: 12.5 mg/kg/injection, schedule: Q04DX003 (ip), vehicle: saline with Tween-80) was 100 % of control and the T/C (dose: 25.0 mg/kg/injection, schedule: Q01DX009 (ip), vehicle: saline sonified) was 95 % of control. For the same compound, the T/C (dose: 25.0 mg/kg/injection, schedule: Q04DX003 (ip), vehicle: saline with Tween-80) was 100 % of control, the T/C (dose: 50.0 mg/kg/injection, schedule: Q01DX009 (ip), vehicle: saline sonified) was 95 % of control and the T/C [1] was 100 % of control.
For `CN(C)P1P(N(C)C)P(N(C)C)P1N(C)C` (centres undefined), the T/C (dose: 60.0 mg/kg/injection, schedule: Q01DX005 (ip), vehicle: saline with Tween-80) was 97 % of control, the T/C (dose: 120.0 mg/kg/injection, schedule: Q01DX005 (ip), vehicle: saline with Tween-80) was 97 % of control and the T/C (dose: 240.0 mg/kg/injection, schedule: Q01DX005 (ip), vehicle: saline with Tween-80) was 95 % of control.
`CCCCNC1=CC(=O)C(NCCCC)=CC1=O` was tested, and the T/C (dose: 50.0 mg/kg/injection, schedule: Q01DX005 (ip), vehicle: Klucel (hydroxypropylcellulose) (HPC)) was 100 % of control, the T/C (dose: 100.0 mg/kg/injection, schedule: Q01DX005 (ip), vehicle: Klucel (hydroxypropylcellulose) (HPC)) was 101 % of control and the T/C (dose: 200.0 mg/kg/injection, schedule: Q01DX005 (ip), vehicle: Klucel (hydroxypropylcellulose) (HPC)) was 98 % of control.
In the case of `COc1cc2nc3cc([N+](=O)[O-])ccc3c(NCCNCC(C)(C)O)c2cc1OC`, the T/C (dose: 6.25 mg/kg/injection, schedule: Q01DX005 (ip), vehicle: saline with Tween-80) is reported as 102 % of control and 105 % of control and 96 % of control, the T/C [2] is reported as 109 % of control and 115 % of control and 117 % of control and the T/C [3] is reported as 117 % of control and 118 % of control and 121 % of control.
